Test results: patent publication US4000297A, “N-p-chlorobenzoyl tryptophane, salts and compositions thereof” (priority 1971, dated 1976)
Structures can show the parent of a compound that is named as a salt. Where two headings read alike, the source gives them in different places.

Legend:
[1] = test system: transit through the stomach and intestine; assay: Anti-spastic activity, vegetable carbon (charcoal) test, rate of transit through the stomach and intestine; type: in vivo, mice; conditions: for Antispastic activity ED50: 120 min; for ED50: Mus musculus, 2 h; for Ratio 3/2: anti-secretive ED50 / anti-spastic ED50 (Table 3)
Procedure: Particularly marked is the anti-spastic activity which the present compounds exercise on the entire digestive system. Measured in the mouse, using the vegetable carbon test (rate of transit through the stomach and intestine), this activity is in some cases comparatively greater than the anti-secretive activity (Table 3).
(*)The antispastic activity is measured in mice of an average weight of […]
± 3 g by administering a suspension of charcoal in gum arabic and
checking after two hours whether the charcoal has reached the initial
portion of the colon. In non-treated subjects the charcoal reaches this
transit of the charcoal. Evaluation of the results is effected as
ED50 in mg/kg body weight of the animal, i.e., the dose at which the […]

[2] = test system: gastric lesions from Indomethacin; assay: Protective activity against gastric lesions due to Indomethacin; type: in vivo, rats; conditions: oral; for Protective activity ED50 / ED50: Indomethacin 16 mg/kg orally; for Protective activity ED50: 240 min; for ED50: Rattus norvegicus, po, 4 h, read-out: Protective activity ED50
Procedure: The activity is defined as the dose in mg/kg of body weight to the animal, which prevents in 50% of the treated subjects arising of lesions due to Indomenthacin.
The protective preparations are administered orally in aqueous suspension.

[3] = test system: gastric secretion; assay: Comparison of antisecretive activity, rats with tied pylorus, oral aqueous suspension; type: in vivo; conditions: oral; for ED50: Rattus norvegicus, po, read-out: Antisecretive activity (dose which reduces the gastric secretion by 50%)
Procedure: (*)The antisecretive activity is defined as the dose in mg/kg of body
weight of the animal, which reduces the gastric secretion by 50%. The
evaluation is effected by considering the decrease in quantity of secrete
gastric juice as compared with controls. Rats of an average weight of 200
± 20 grams are employed of which the lower part of the stomach at the
level of the pylorus is tied to collect the gastric juice during the
indicated periods. The preparations are administered orally in the form o

[4] = Acute toxicity (DL50) in the mouse; type: in vivo; conditions: in vivo, iv (Table 1), read-out: DL50 value
Excerpt: *1 DL50 in the mouse mg/kg iv.
Examples of differences between toxicity (DL50 in
the mouse) by intravenous administration and oral
administration in mg/kg. Variation in therapeutic

[5] = test system: gastric secretion; assay: Anti-secretive activity in the rat with lig. pylorus, iv; type: in vivo
[6] = test system: gastric secretion; assay: Anti-secretive activity in the rat by gastric stimulus, oral; type: in vivo; conditions: oral (Table 1), read-out: Activity B: anti-secretive activity ED50
Procedure: *3 Anti-secretive activity in the rat by gastric stimulus, ED50 mg/k

[7] = Solubility; type: physicochemical
[8] = charcoal after two hours, orally (later Table 3)
[9] = mouse, vegetable carbon test (Table 3), read-out: Anti-spastic activity ED50
[10] = Rattus norvegicus, iv, compared with anti-spastic activity (Table 3), read-out: Anti-secretive activity ED50
[11] = rat with lig. pylorus, iv (Table 1), read-out: Activity A: anti-secretive activity ED50
[12] = po, charcoal after two hours, orally (later Table 3), read-out: Antispastic activity ED50
[13] = Rattus norvegicus, iv, read-out: Activity A: anti-secretive activity ED50

Cc1ccc(C(=O)N[C@@H](Cc2c[nH]c3ccccc23)C(=O)O)cc1 [CR 510 - Calcium salt]
Antispastic activity ED50 [1, 8]: 725 mg/kg
Protective activity ED50 [2]: 390 mg/kg/os
Antisecretive activity (dose which reduces the gastric secretion by 50%) ([3]; 2.5 hrs, 150 min): 602 mg/kg
Antisecretive activity (dose which reduces the gastric secretion by 50%) ([3]; 5 hrs, 300 min): 574 mg/kg
Antisecretive activity (dose which reduces the gastric secretion by 50%) ([3]; 10 hrs, 600 min): 521 mg/kg
Antisecretive activity (dose which reduces the gastric secretion by 50%) ([3]; 15 hrs, 900 min): 666 mg/kg

O=C(N[C@@H](Cc1c[nH]c2ccccc12)C(=O)O)c1ccccc1Cl [Ex.50 (CR617), N-o-chlorobenzoyl-L-tryptophane]
LD50 [4]: 1270 mg/kg
ED50 [1, 9]: 300 mg/kg
Ratio 3/2 [1]: 1
ED50 [5, 10]: 299 mg/kg
ED50 [5, 11]: 299 mg/kg
ED50 [6]: 255 mg/kg

Nc1ccc(C(=O)N[C@@H](Cc2c[nH]c3ccccc23)C(=O)O)cc1 [Ex.28 (CR504), N-p-amino-benzoyl-L-tryptophane]
LD50 [4]: 1670 mg/kg
ED50 [1, 12]: > 1000 mg/kg
ED50 [2]: > 1500 mg/kg
ED50 [5, 11]: 960 mg/kg
ED50 [6]: 205 mg/kg
ED50 ([3]; 2.5 h, 2.5 hrs): 1080 mg/kg
ED50 ([3]; 5 h, 5 hrs): 1090 mg/kg
ED50 ([3]; 10 h, 10 hrs): 1490 mg/kg
ED50 ([3]; 15 h, 15 hrs): > 2000 mg/kg

O=C(N[C@@H](Cc1c[nH]c2ccccc12)C(=O)O)OCc1ccccc1Cl [Ex. 3 (CR460), N-o-chloro-carbobenzoxy-L-tryptophane]
LD50 ([4]; iv): 640 mg/kg
ED50 [1, 9]: 58 mg/kg
Ratio 3/2 [1]: 2.0
ED50 [5, 10]: 118 mg/kg
ED50 [5, 11]: 118 mg/kg
ED50 [6]: 267 mg/kg

[OH][Al]([OH])[OH] [Aluminium hydroxide, reference compound]
Protective activity ([2]; 136mg/kg): inactive

O=C(N[C@@H](Cc1c[nH]c2ccccc12)C(=O)O)c1cccc(Cl)c1 [Ex.30 (CR546), N-m-chloro-benzoyl-L-tryptophane]
LD50 [4]: 560 mg/kg
ED50 [5, 13]: 210 mg/kg
ED50 [6]: 147 mg/kg

O=C(O)c1ccc(C(=O)N[C@@H](Cc2c[nH]c3ccccc23)C(=O)O)cc1 [Ex.27 (CR508), N-p-carboxy-benzoyl-L-tryptophane]
LD50 [4]: 900 mg/kg
ED50 [5, 11]: 514 mg/kg
ED50 [6]: 406 mg/kg

CCN(CC)CCOC(=O)[C@H](Cc1c[nH]c2ccccc12)NC(=O)c1ccc(C)cc1 [Ex.49 (CR636), Diethylaminoethylester of N-p-toluyl-L-tryptophane oxalate]
LD50 [4]: 320 mg/kg
ED50 [5, 11]: 160 mg/kg
ED50 [6]: 120 mg/kg

O=C(N[C@@H](Cc1c[nH]c2ccccc12)C(=O)O)OCc1ccc(Cl)c(Cl)c1 [Ex.16 (CR469), N-(3,4-dichloro)-carbobenzoxy-L-tryptophane]
LD50 ([4]; iv): 208 mg/kg
ED50 [5, 13]: 137 mg/kg
ED50 [6]: 104 mg/kg

O=C(N[C@H](Cc1c[nH]c2ccccc12)C(=O)O)OCc1ccc(Cl)cc1 [Ex. 5 (CR630), N-p-chloro-carbobenzoxy-D-tryptophane]
LD50 ([4]; iv): 260 mg/kg
ED50 [5, 13]: 142 mg/kg
ED50 [6]: 107 mg/kg

O=C(N[C@@H](Cc1c[nH]c2ccccc12)C(=O)O)OCc1cccc2ccccc12 [Ex.31 (CR514), N-(carbo-alpha-naphthyl-methoxy)-L-tryptophane]
LD50 ([4]; iv): 160 mg/kg
ED50 [5, 11]: 128 mg/kg
ED50 [6]: 94 mg/kg

O=C(N[C@@H](Cc1c[nH]c2ccccc12)C(=O)O)OCc1ccc(Cl)cc1 [CR 449 calcium salt, N-p-chloro-carbobenzoxy-L-tryptophane calcium salt]
Solubility in ethanol [7]: soluble
Solubility in methanol [7]: soluble
Solubility in water ([7]; water, in words): Very slightly soluble
Protective activity ED50 ([2]; calcium salt): 121 mg/kg/os
Antisecretive activity (dose which reduces the gastric secretion by 50%) ([3]; 2.5 hrs, calcium salt, 150 min): 142 mg/kg
Antisecretive activity (dose which reduces the gastric secretion by 50%) ([3]; 5 hrs, calcium salt, 300 min): 112 mg/kg
Antisecretive activity (dose which reduces the gastric secretion by 50%) ([3]; 10 hrs, calcium salt, 600 min): 110 mg/kg
Antisecretive activity (dose which reduces the gastric secretion by 50%) ([3]; 15 hrs, calcium salt, 900 min): 106 mg/kg

O=C(N[C@@H](Cc1c[nH]c2ccccc12)C(=O)O)c1ccc(C(F)(F)F)cc1 [Ex.20 (CR505), N-p-trifluoromethyl-benzoyl-L-tryptophane]
LD50 [4]: 210 mg/kg
ED50 [5, 13]: 160 mg/kg
ED50 [6]: 110 mg/kg

O=C(N[C@@H](Cc1c[nH]c2ccccc12)C(=O)O)c1ccc(Br)cc1 [Ex.19 (CR503), N-p-bromo-benzoyl-L-tryptophane]
LD50 [4]: 360 mg/kg
ED50 [5, 13]: 111 mg/kg
ED50 [6]: 85 mg/kg

O=C(N[C@@H](Cc1c[nH]c2ccccc12)C(=O)[O-])OCc1ccc(Cl)cc1.[Na+]
Solubility in acetone ([7]; acetone): Highly soluble
Solubility in ethanol [7]: Highly soluble
Solubility in methanol [7]: Highly soluble
solubility ([7]; water): ~50 mg/mL

O=C(N[C@@H](Cc1c[nH]c2ccccc12)C(=O)O)OCc1ccc([N+](=O)[O-])cc1 [CR 438 - Calcium salt]
Antispastic activity ED50 [1, 8]: > 1000 mg/kg
Protective activity ED50 [2]: > 1500 mg/kg/os
Antisecretive activity (dose which reduces the gastric secretion by 50%) ([3]; 2.5 hrs, 150 min): 810 mg/kg
Antisecretive activity (dose which reduces the gastric secretion by 50%) ([3]; 5 hrs, 300 min): 780 mg/kg
Antisecretive activity (dose which reduces the gastric secretion by 50%) ([3]; 10 hrs, 600 min): 972 mg/kg

O=C(O)Cc1ccc(NC(=O)[C@H](Cc2c[nH]c3ccccc23)NC(=O)c2ccccc2)cc1 [Ex.41 (CR421), N-benzoyl-L-tryptophyl-p-aminophenylacetic acid]
LD50 [4]: 1000 mg/kg
ED50 [1, 9]: 170 mg/kg
Ratio 3/2 [1]: 2.0
ED50 [5, 10]: 322 mg/kg
ED50 [5, 11]: 322 mg/kg
ED50 [6]: 186 mg/kg

N#Cc1ccc(C(=O)N[C@@H](Cc2c[nH]c3ccccc23)C(=O)O)cc1 [Ex.24 (CR512), N-p-cyano-benzoyl-L-tryptophane]
LD50 [4]: 1450 mg/kg
ED50 [5, 13]: 500 mg/kg
ED50 [6]: 360 mg/kg

COC(=O)Cc1ccc(NC(=O)[C@H](Cc2c[nH]c3ccccc23)NC(=O)OCc2ccccc2)cc1 [Ex.38 (CR417), Methyl-N-carbobenzoxy-L-tryptophyl-p-aminophenylacetate]
LD50 ([4]; iv): 1000 mg/kg
ED50 [5, 11]: 300 mg/kg
ED50 [6]: 300 mg/kg

O=C(N[C@@H](Cc1c[nH]c2ccccc12)C(=O)O)c1ccc(F)cc1 [Ex.25 (CR506), N-p-fluoro-benzoyl-L-tryptophane]
LD50 [4]: 655 mg/kg
ED50 [5, 13]: 223 mg/kg
ED50 [6]: 295 mg/kg

O=C(O)c1ccc(NC(=O)[C@H](Cc2c[nH]c3ccccc23)NC(=O)c2ccccc2)cc1 [Ex.42 (CR404), N-benzoyl-L-tryptophyl-p-aminobenzoic acid]
LD50 [4]: 500 mg/kg
ED50 [5, 11]: 284 mg/kg
ED50 [6]: 220 mg/kg

O=C([O-])[O-].[Ca+2] [Calcium carbonate, reference compound]
Protective activity ([2]; 140mg/kg): inactive

O=C(Cc1ccc(Cl)cc1)N[C@@H](Cc1c[nH]c2ccccc12)C(=O)O [Ex.47 (CR584), N-p-chlorophenylacetyl-L-tryptophane]
LD50 [4]: 545 mg/kg
ED50 [5, 11]: 487 mg/kg
ED50 [6]: 270 mg/kg

O=C(N[C@@H](Cc1c[nH]c2ccccc12)C(=O)O)OCc1ccc([N+](=O)[O-])cc1 [Ex.12 (CR438), N-p-nitro-carbobenzoxy-L-tryptophane]
LD50 ([4]; iv): 700 mg/kg
ED50 [1, 12]: 870 mg/kg
ED50 [2]: 990 mg/kg
ED50 [5, 11]: 267 mg/kg
ED50 [6]: 195 mg/kg
ED50 ([3]; 2.5 h, 2.5 hrs): 475 mg/kg
ED50 ([3]; 5 h, 5 hrs): 560 mg/kg
ED50 ([3]; 10 h, 10 hrs): 980 mg/kg
ED50 ([3]; 15 h, 15 hrs): > 1500 mg/kg

O=C(N[C@@H](Cc1c[nH]c2ccccc12)C(=O)O)OCc1ccc(Br)cc1 [CR 451 - Calcium salt]
Antispastic activity ED50 [1, 8]: 393 mg/kg
Protective activity ED50 [2]: 392 mg/kg/os
Antisecretive activity (dose which reduces the gastric secretion by 50%) ([3]; 2.5 hrs, 150 min): 233 mg/kg
Antisecretive activity (dose which reduces the gastric secretion by 50%) ([3]; 5 hrs, 300 min): 220 mg/kg
Antisecretive activity (dose which reduces the gastric secretion by 50%) ([3]; 10 hrs, 600 min): 337 mg/kg
Antisecretive activity (dose which reduces the gastric secretion by 50%) ([3]; 15 hrs, 900 min): 580 mg/kg
